From patent US20050288379A1, “Benzoquinone compounds as anti-cancer agents” (priority 2004, published 2005)

Tested on: Human cancer cell lines Eca-109, AGS, BGC-823, DU145, SPC-A-1, Caco-2, LS-174T, A375, Raji, MCF-7, Bcap-37, HepG2
Test: In vitro MTT assay of inhibition of cancer cell growth
Type: cell-based
Settings: 12 human cancer cell lines, 48 hrs incubation, IqA 0.3-100 μg/ml, IqB 0.03-10 μg/ml, absorbance 492 nm, IC50 values calculated but not given
Description: An in vitro assay was conducted to evaluate the efficacy of IqA and IqB in inhibiting the growth of cancer cells.
Human cancer cell lines, i.e., Eca-109 (esophagus carcinoma cell line), AGS and BGC-823 (gastric adenocarcinoma cell lines), DU145 (prostate carcinoma cell line), SPC-A-1 (lung adenocarcinoma cell line), Caco-2 and LS-174T (colonic carcinoma cell lines), A375 (malignant melanoma cell line), Raji (Burkitt's lymphoma cell line), MCF-7 and Bcap-37 (breast carcinoma cell lines), HepG2 (hepatoma cell line), were purchased from the Cell Bank of Shanghai Institute of Cell Biology, Chinese Academy of Sciences, and cultured in Iscove's Modified Dulbecco's Medium (IMDM) containing 10% fetal bovine serum (FBS) in an incubator at 37° C. under 5% CO2. Cells of 70-80% confluence were trypsinized, resuspended in IMDM medium containing 10% FBS at 1×10^5 cells/ml, and seeded in 96-well plates (100 μl in each well). The plates were incubated at 37° C. under 5% CO2 overnight.
IqA and IqB were provided by Shandong Xinhua Pharmaceutical CO. Ltd. IqA and IqB stock solutions were prepared at the concentrations of 10 mg/ml and 1 mg/ml in dimethyl sulfoxide (DMSO), respectively. The IqA solution was diluted with the growth medium into a series of solutions at different concentrations. […]
150 μl of DMSO was added to each well. […] Absorbance was measured at 492 nm using a microplate reader. […]

| SMILES | inhibition of the proliferation of cancer cells |
| --- | --- |
| CCCCCCCCCCCCCCCCCC1=CC(=O)C=C(OC)C1=O [IqB, irisquinone B] | effectively inhibited the proliferation |
| CCCCCC/C=C\CCCCCCCCCC1=CC(=O)C=C(OC)C1=O [IqA, irisqinone A] | effectively inhibited the proliferation |
